# Experiments:
# UB/OC-1 cells [1] = experiment: Cell viability assay (MTS assay); type: cell-based; conditions: capsaicin 2.5 μM prior to cisplatin 20 μM
# Method: The in vitro UB/OC1 cell proliferation was performed by using the CellTiter 96® AQueous One Solution Cell Proliferation Assay Kit (Promega, Madison, WI), according to the manufacturer's instructions. 3,500 cells were seeded per well into a 96-well plate. […] After 48 h, 20 μl of CellTiter 96 AQueous One Solution reagent was added to each well in 100 μl of total volume of media. Cells were incubated for 1 h, and recorded absorbance at 490 nm using an ELISA plate reader. The absorbance is directly proportional to the number of living cells and is expressed as a percent relative to vehicle-treated cells.
# Wistar rats = experiment: ABR threshold shifts, noise induced hearing loss (NIHL); type: in vivo, rat
# Method: Male Wistar rats (150-250 gm) were used for this study under an animal care protocol approved by the Laboratory and Animal Care and Use Committee (SIU School of Medicine). Pre-treatment ABRs were performed. Animals were then treated according to the experimental paradigm. Prevention strategy: consisted of administration of ETA either intra-tympanic ally (IT) (250 μg/50 μl) or subcutaneously (sc) (3 mg/kg) or PBS (IT-50 μl or sc-1 ml) either 3 days or 7 days prior to noise exposure (NE).
# Animals were exposed to noise (NE), and then provided ETA treatments either IT or SC at either 2 h or 24 h post noise injury. Post treatment ABR thresholds were determined at 21 days post noise exposure and cochleae were excised for morphological, molecular and biochemical studies. Cochleae used for RNA preparations were flushed immediately with RNA later and kept in RNA later for 24 h at 4° C. Those used for immunohistochemical studies were perfused and fixed with 4% paraformaldehyde, while those used for Scanning electron microscopy (SEM) were perfused and fixed with 2.5% glutaraldehyde. Cochleae used for whole mounts were decalcified for 7-10 days in 100 mM EDTA at room temperature.
# Male Wistar rats were exposed to octave band noise at 122 dB centered at 16 kHz for 1 h under isofluorane anesthesia, with the 3 inch silicon tubes attached to the high frequency transducer resting in the middle ear cavity. This exposure typically results in a 30-50 dB temporary threshold shift (measured as an immediate pre-to-post noise exposure shift in ABR thresholds) across all frequencies; with slightly more elevation at those frequencies around 16 kHz and 20-40 dB permanent threshold shift measured at 21 days post noise exposure at all frequencies. Acoustic stimuli are calibrated using a cloth model rat and a Bruel & Kjaer Pulse System with a ½ inch free-field microphone (B&K model 4191). Baseline noise levels in the test chamber (with background test noise turned off) are typically measured below 20 dB SPL in the 4-40 kHz range.
# Pre-treatment ABR thresholds were determined using the high frequency Intelligent Hearing Systems (IHS) on naive rats prior to any treatment or noise exposure for each ear. Animals were tested with a stimulus intensity series that was initiated at 0 dB sound pressure level (SPL) and reached a maximum at 90 dB SPL. The stimulus intensity levels were increased in 10 dB increments, and the evoked ABR waveforms were observed on a video monitor. The auditory stimuli included tone bursts at 8, 16, and 32 kHz with a 10 msec plateau and a 1 msec rise/fall time presented at a rate of 5/sec. Threshold was defined as the lowest intensity capable of evoking a reproducible, visually detectable response with two distinct waveforms and minimum amplitude of 0.5 μV.
# Preconditioning of the TRPV1 receptor in the rat cochlea by oral administration of capsaicin is shown here to protect from NIHL. Male Wistar rats weighing 200-250 gms were used. ABRs from naïve rats were recorded. Rats were then treated with oral phosphate buffered saline (PBS—1 ml) or capsaicin (1 ml of 20 mg/ml) starting 24 hrs prior to NE, on the day of NE, and 24 hrs post NE. The final ABRs were recorded 21 days post NE. Cochleae were collected for various biochemical tests and immunohistochemistry. At least 6 animals were used per treatment group. NE caused an ABR threshold shift of 21.6±1.7, 35.5±1.9 and 43.9±2.3 dB threshold shift at 8, 16 and 32 kHz respectively. Oral capsaicin treatment completely protects from NIHL (3.9±1.4, 6.1±1.8 and 8.9±2.1 dB threshold shift at 8, 16 and 32 kHz respectively), there is no significant change in ABR threshold shift compared to control. […] Statistical significance was calculated using one way ANOVA with Tukey's post-hoc analyses, p<0.05 (FIG. 16.A.).
# ABR measurements were conducted in naïve male Wistar rats. […]
# TRPV1 = TRPV1 (Homo sapiens, UniProt Q8NER1); experiment: Ca2+ imaging (Fluo-4AM) in HEKVR1 cells; type: cell-based; conditions: capsaicin 2.5 μM
# Excerpt: NE has been linked to immediate increase in ROS generation and persistent oxidative stress in the cochlea2, leading to generation of reactive oxygen species such as: hydroxyl […] (OH^−), superoxide anion (O^2—) and hydrogen peroxide (H2O2).
# UB/OC-1 cells [2] = experiment: Western blot of STAT1, STAT3 and JAK2 phosphorylation; type: cell-based, mouse
# rat cochlea = experiment: Immunolabelling of mid-modiolar cochlear sections, fluorescent intensity analyses; type: in vivo
# Method: Cochleae were perfused with a 4% paraformaldehyde solution, cochleae were decalcified for 7-10 days in 120 mM EDTA, embedded them in paraffin and then sectioned the specimens [Mukherjea et al., 2010]. Slides were deparaffined, rehydrated and then stained with primary and secondary antibodies. Glass coverslips were mounted on the specimens with ProLong Diamond mounting medium. Images were obtained using a Leica confocal microscope (Buffalo Grove, IL).
# Image J software was used to analyze the mean gray area for the various images. These values were then used to quantify the increase or decrease in % fluorescence intensity of the various regions of the samples compared to control.
# UMSCC-10b cells = experiment: SCID mouse xenograft model; type: in vivo
# Method: SCID mice (from Envigo, 5-6 weeks of age) were injected subcutaneously with 1.5×10^6 mycoplasma-free UMSCC 10B cells in one flank. […] At the time of each treatment, tumor volumes were calculated based on the formula: volume=width2×(length/2) [Jajoo et al.]. Mice were killed 24 h after the eleventh treatment. All procedures were performed in accordance with relevant guidelines and regulations of SIU School of Medicine.
# [3] = oral capsaicin 24 hrs prior, day of and 24 hrs post NE, 21 days post NE
# [4] = capsaicin 2.5 μM 30 min and/or cisplatin 2.5 μM 45 min (FIG. 5.E)
# TRPV1, sequence (Q8NER1 whole entry, species assumed): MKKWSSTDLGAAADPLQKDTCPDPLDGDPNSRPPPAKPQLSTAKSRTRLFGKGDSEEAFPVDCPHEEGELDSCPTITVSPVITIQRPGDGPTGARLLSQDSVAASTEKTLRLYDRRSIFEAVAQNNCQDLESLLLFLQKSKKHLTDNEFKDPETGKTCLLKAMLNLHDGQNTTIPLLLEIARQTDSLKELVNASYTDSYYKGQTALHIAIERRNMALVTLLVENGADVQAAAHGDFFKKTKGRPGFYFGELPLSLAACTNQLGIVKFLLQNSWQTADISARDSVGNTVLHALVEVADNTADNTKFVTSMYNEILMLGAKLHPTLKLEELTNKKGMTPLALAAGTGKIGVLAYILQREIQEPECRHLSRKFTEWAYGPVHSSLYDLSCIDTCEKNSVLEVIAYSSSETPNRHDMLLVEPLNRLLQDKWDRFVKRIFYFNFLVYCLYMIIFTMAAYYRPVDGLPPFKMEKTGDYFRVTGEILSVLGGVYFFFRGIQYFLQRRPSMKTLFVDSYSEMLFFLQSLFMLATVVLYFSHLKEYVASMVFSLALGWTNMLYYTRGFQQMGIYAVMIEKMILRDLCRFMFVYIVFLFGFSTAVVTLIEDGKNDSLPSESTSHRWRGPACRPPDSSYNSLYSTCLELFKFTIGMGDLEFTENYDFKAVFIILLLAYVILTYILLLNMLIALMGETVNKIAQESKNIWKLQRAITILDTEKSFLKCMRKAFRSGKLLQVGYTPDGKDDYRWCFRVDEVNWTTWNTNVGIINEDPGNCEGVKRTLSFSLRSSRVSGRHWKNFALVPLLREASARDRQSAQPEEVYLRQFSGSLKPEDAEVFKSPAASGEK
structure (smiles),measurement,setting,value
"COc1cc(CNC(=O)CCCC/C=C/C(C)C)ccc1O [capsaicin, 8-methyl-N-vanillyl-trans-6-nonenamide]",cisplatin-induced cell killing,UB/OC-1 cells [1],blocked cisplatin-induced cell killing
same,Wave 1 amplitude versus sound intensity,"Wistar rats; capsaicin 5 mg/kg oral, ETA 1 mg/kg, noise exposure (FIG. 18.B)",partial restoration
same,NE threshold shift,"Wistar rats; intra-tympanic or oral capsaicin, 21 days after NE",abrogated
same,ABR threshold shift at 8 kHz,Wistar rats; [3],3.9±1.4 dB
same,ABR threshold shift at 16 kHz,Wistar rats; [3],6.1±1.8 dB
same,ABR threshold shift at 32 kHz,Wistar rats; [3],8.9±2.1 dB
same,ABR threshold shift at 8 kHz,"Wistar rats; oral capsaicin alone, no NE",1±1.1 dB
same,ABR threshold shift at 16 kHz,"Wistar rats; oral capsaicin alone, no NE",1±1.1 dB
same,ABR threshold shift at 32 kHz,"Wistar rats; oral capsaicin alone, no NE",3±1.6 dB
same,increase in Ca^2+ over basal fluorescence,TRPV1,741±22%
same,JAK2 phosphorylation,"UB/OC-1 cells [2]; 2.5 μM, time course",increased activation
same,p-STAT1,UB/OC-1 cells [2]; [4],135.4±4%
same,p-STAT3,UB/OC-1 cells [2]; [4],173±4%
same,p-STAT3/p-STAT1 ratio peak value,"UB/OC-1 cells [2]; capsaicin 2.5 μM, reached in 45 min",~130%
same,time of peak STAT1 Ser^727 phosphorylation,"UB/OC-1 cells [2]; capsaicin 2.5 μM, returns to baseline by 120 min",45 min
same,p-STAT3/p-STAT1 ratio,UB/OC-1 cells [2]; of control (FIG. 5.F),128±4.1%
same,"TRPV1, NOX3 and iNOS protein expression induced by cisplatin",rat cochlea; capsaicin pre-treatment,significantly decreased
same,CB2 expression in three regions of the cochleae,rat cochlea; capsaicin pretreatment before cisplatin,significantly increased the expression of CB2
same,p-STAT3/p-STAT1 ratio in cochlear regions,"rat cochlea; oral capsaicin pretreatment, compared to cisplatin",significantly increased
same,"CB2 labelling in the OHCs, SGs and SVA",rat cochlea; single agent,increased CB2 labelling in all the three regions to an even greater extent
same,"TRPV1, NOX3 and iNOS labelling in the OHCs, SG and SVA",rat cochlea; single agent vs control,did not produce significant change
same,p-STAT3/p-STAT1 ratio in cochlear regions,"rat cochlea; single agent, 72 h, vs oral PBS",increased the p-STAT3/p-STAT1 ratio in all the three regions of the organ of Corti significantly
same,cisplatin tumor growth curves,UMSCC-10b cells; oral capsaicin 0.5 mg/kg + cisplatin 2 mg/kg ip,shifted the cisplatin tumor growth curves to the right
same,"tumor growth (volume, size, weight)",UMSCC-10b cells; single agent: cisplatin 2 mg/kg ip or oral capsaicin 0.5 mg/kg,"decreased tumor size and weight, but not significantly"
